Assay results taken from patent US9758524B2, “4-imidazopyridazin-1-yl-benzamides as Btk inhibitors” (Merck Sharp & Dohme B.V., priority 2011, dated 2017).
Like-named read-outs stand apart in the source and are kept apart here.

Tests used:
FynT enzyme = FynT enzyme (Homo sapiens (Human), UniProt P06241); assay: FynT enzyme activity (IMAP fluorescence polarization assay); assay type: biochemical; conditions: 60 min pre-incubation, 0.2 μM ATP
Procedure, shortened: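 Human FynT pre-incubated with compounds 60 min at room temperature, then reacted 2 h at room temperature with fluorescein-labelled p34cdc2 peptide (100 nM final). Stopped with IMAP binding solution; fluorescence polarization read after 60 min. Activity as % of ±ATP control difference; EC50 by curve fitting.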

Btk enzyme (His-Btk) = Btk enzyme (His-Btk) (Homo sapiens (Human), UniProt Q06187); assay: Btk enzyme activity (IMAP fluorescence polarization assay)
Lck enzyme = Lck enzyme (Homo sapiens (Human), UniProt P06239); assay: Lck enzyme activity (IMAP fluorescence polarization assay)
Src enzyme = Src enzyme (Homo sapiens (Human), UniProt P12931); assay: Src enzyme activity (IMAP fluorescence polarization assay)
Lyn enzyme = Lyn enzyme (Homo sapiens (Human), UniProt P07948); assay: Lyn enzyme activity (IMAP fluorescence polarization assay)
[1] = IMAP, 60 min pre-incubation, 5 μM ATP, bin bound in μM
[2] = read-out: EC50 Lck activity values, IMAP, 60 min pre-incubation, 6 μM ATP, bin bound in μM
[3] = read-out: EC50 Src activity values, IMAP, 60 min pre-incubation, 4 μM ATP
[4] = read-out: EC50 Lyn activity values, 60 min pre-incubation, 2 μM ATP, bin bound in μM
[5] = IMAP, 60 min pre-incubation, 5 μM ATP, bin bound in nM
[6] = read-out: EC50 Btk activity values, IMAP, 60 min pre-incubation, 5 μM ATP, bin bound in nM
[7] = IMAP, 60 min pre-incubation, 6 μM ATP, bin bound in μM

Chain of Lyn enzyme (P07948 whole entry): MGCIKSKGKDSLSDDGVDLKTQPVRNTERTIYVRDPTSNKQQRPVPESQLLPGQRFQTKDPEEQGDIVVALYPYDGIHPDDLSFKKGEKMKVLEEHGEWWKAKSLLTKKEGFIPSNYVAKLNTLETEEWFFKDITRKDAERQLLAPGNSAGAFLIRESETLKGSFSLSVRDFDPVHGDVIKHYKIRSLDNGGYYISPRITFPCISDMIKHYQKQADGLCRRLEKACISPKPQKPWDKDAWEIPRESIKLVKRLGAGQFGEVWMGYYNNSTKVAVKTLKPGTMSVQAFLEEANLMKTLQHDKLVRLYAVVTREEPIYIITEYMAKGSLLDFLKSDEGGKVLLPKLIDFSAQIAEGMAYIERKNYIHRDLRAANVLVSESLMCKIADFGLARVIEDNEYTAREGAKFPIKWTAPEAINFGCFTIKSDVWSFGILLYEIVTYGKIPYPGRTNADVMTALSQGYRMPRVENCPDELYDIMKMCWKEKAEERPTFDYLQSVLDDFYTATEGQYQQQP
Chain of FynT enzyme (P06241 other isoform, or with tags, fused parts or gaps): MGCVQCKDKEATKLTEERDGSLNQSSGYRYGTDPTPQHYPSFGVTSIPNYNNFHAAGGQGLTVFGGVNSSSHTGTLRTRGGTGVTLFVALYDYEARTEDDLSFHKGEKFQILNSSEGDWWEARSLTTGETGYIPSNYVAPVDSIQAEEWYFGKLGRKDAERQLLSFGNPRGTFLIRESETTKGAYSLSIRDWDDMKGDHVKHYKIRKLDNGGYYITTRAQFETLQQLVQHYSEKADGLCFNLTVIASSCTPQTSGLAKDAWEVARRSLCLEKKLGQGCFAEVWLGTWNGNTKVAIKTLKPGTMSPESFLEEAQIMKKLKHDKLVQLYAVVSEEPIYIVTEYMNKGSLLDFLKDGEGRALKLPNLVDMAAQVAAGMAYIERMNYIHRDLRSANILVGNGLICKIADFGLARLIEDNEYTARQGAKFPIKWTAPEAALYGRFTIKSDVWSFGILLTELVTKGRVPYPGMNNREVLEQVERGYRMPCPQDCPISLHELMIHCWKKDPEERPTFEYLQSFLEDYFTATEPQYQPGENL
Chain of Src enzyme (P12931 whole entry, looked up): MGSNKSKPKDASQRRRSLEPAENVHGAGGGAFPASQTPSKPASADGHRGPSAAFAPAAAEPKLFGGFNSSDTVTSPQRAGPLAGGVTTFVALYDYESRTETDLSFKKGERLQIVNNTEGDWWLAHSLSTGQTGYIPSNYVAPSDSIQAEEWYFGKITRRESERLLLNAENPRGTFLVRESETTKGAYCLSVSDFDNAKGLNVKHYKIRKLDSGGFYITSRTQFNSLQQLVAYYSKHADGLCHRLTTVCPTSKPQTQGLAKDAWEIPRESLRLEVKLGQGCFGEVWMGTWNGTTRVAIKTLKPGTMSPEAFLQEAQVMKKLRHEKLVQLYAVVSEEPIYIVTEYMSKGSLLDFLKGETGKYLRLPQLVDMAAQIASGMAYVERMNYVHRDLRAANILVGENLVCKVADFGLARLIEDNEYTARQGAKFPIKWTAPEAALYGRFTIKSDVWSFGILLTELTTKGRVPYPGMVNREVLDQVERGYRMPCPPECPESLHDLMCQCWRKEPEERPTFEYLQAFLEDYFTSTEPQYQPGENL
Chain of Btk enzyme (His-Btk) (Q06187 whole entry): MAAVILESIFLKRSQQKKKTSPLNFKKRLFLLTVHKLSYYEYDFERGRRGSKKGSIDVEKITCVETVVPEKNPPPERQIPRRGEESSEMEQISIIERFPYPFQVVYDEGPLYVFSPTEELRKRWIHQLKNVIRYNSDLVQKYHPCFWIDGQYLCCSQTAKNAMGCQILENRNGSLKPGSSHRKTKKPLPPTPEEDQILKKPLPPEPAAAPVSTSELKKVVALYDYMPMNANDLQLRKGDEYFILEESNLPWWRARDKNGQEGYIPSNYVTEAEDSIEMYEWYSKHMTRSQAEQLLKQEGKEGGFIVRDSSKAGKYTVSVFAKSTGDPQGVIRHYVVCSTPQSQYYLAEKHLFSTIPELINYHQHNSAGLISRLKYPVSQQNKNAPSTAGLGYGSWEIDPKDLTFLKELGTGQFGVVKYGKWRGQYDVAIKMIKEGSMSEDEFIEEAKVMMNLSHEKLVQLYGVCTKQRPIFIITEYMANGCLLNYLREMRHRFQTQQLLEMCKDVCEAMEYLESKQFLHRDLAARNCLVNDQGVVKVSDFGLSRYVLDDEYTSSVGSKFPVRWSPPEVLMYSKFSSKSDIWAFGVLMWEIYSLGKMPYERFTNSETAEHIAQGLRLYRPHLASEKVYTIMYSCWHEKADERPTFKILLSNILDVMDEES
Chain of Lck enzyme (P06239 whole entry): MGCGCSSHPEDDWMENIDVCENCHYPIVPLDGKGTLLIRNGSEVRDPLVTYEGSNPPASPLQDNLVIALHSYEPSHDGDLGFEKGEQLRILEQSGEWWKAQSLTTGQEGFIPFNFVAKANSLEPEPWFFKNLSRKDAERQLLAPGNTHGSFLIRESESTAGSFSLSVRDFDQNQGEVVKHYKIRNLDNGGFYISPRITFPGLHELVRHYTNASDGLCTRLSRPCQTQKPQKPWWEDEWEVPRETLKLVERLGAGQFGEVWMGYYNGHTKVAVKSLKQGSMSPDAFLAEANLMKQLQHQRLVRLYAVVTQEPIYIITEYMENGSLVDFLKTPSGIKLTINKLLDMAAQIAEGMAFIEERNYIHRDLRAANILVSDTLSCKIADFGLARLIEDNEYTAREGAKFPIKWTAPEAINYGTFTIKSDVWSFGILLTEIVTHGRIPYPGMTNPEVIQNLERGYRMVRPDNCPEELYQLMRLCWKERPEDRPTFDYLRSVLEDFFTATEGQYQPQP

| Structure (SMILES) | EC50 (FynT enzyme) [µM] | EC50 (Btk enzyme (His-Btk)) [nM] | EC50 Btk activity values (Btk enzyme (His-Btk); [1]) [µM] | EC50 (Lck enzyme; [2]) [µM] | EC50 (Src enzyme; [3]) [µM] | EC50 (Lyn enzyme; [4]) [µM] | EC50 Btk activity values (Btk enzyme (His-Btk); [5]) [µM] | EC50 (Btk enzyme (His-Btk); [6]) [nM] | EC50 (Lck enzyme) [µM] | EC50 (Src enzyme) [µM] | EC50 (Lyn enzyme; EC50 Lyn activity values, 60 min pre-incubation, 2 μM ATP, bin bound in μM) [µM] | EC50 Lck activity values (Lck enzyme; [7]) [µM] | EC50 Lyn activity values (Lyn enzyme; 60 min pre-incubation, 2 μM ATP, bin bound in μM) [µM] | EC50 (Lyn enzyme; EC50 Lyn activity values, 60 min pre-incubation, 2 μM ATP, bin bound in nM) [µM] |
| --- | --- | --- | --- | --- | --- | --- | --- | --- | --- | --- | --- | --- | --- | --- |
| Nc1nccn2c([C@@H]3CCCCN3C(=O)c3ccnc(Cl)n3)nc(-c3ccc(C(=O)Nc4cccnn4)cc3)c12 [Example 74, (S)-4-(8-amino-3-(1-(2-chloropyrimidine-4-carbonyl)piperidin-2-yl)imidazo[1,5-a]pyrazin-1-yl)-N-(pyridazin-3-yl)benzamide] | ≥ 1 | 100 to 1000 | <1 | ≥ 1 | ≥ 1 | ≥ 1 | – | – | – | – | – | – | – | – |
| COC/C=C/C(=O)N1CCC[C@H]1c1nc(-c2ccc(C(=O)Nc3cc(C#N)ccn3)cc2)c2c(N)nccn12 [Example 98, (S,E)-4-(8-amino-3-(1-(4-methoxybut-2-enoyl)pyrrolidin-2-yl)imidazo[1,5-a]pyrazin-1-yl)-N-(4-cyanopyridin-2-yl)benzamide] | ≥ 1 | 10 to 100 | – | ≥ 1 | ≥ 1 | ≥ 1 | <0.1 | – | – | – | – | – | – | – |
| CN(C)C/C=C/C(=O)NCc1nc(-c2ccc(C(=O)Nc3ccccn3)cc2)c2c(N)nccn12 [Example 69, (E)-4-(8-amino-3-((4-(dimethylamino)but-2-enamido)methyl)imidazo[1,5-a]pyrazin-1-yl)-N-(pyridin-2-yl)benzamide] | ≥ 1 | 10 to 100 | – | ≥ 1 | ≥ 1 | ≥ 1 | <0.1 | – | – | – | – | – | – | – |
| CCCc1ccnc(NC(=O)c2ccc(-c3nc([C@@H]4CCCN4C(=O)/C=C/COC)n4ccnc(N)c34)c(C)c2)c1 [Example 87, 4-(8-amino-3-((S)-1-((E)-4-methoxybut-2-enoyl)pyrrolidin-2-yl)imidazo[1,5-a]pyrazin-1-yl)-3-methyl-N-(4-propylpyridin-2-yl)benzamide] | ≥ 1 | 100 to 1000 | <1 | ≥ 1 | ≥ 1 | ≥ 1 | – | – | – | – | – | – | – | – |
| CC#CC(=O)N1CCC[C@H]1c1nc(-c2ccc(C(=O)Nc3nc4c(s3)CCCC4)cc2)c2c(N)nccn12 [Example 12, (S)-4-(8-Amino-3-(1-but-2-ynoylpyrrolidin-2-yl)imidazo[1,5-a]pyrazin-1-yl)-N-(4,5,6,7-tetrahydrobenzo[d]thiazol-2-yl)benzamide] | ≥ 1 | – | – | ≥ 1 | ≥ 1 | ≥ 1 | – | < 10 | – | – | – | – | – | – |
| CC#CC(=O)N1CCC[C@H]1c1nc(-c2ccc(C(=O)Nc3cc(-c4ccccc4)ccn3)cc2)c2c(N)nccn12 [Example 132, (S)-4-(8-amino-3-(1-but-2-ynoylpyrrolidin-2-yl)imidazo[1,5-a]pyrazin-1-yl)-N-(4-phenylpyridin-2-yl)benzamide] | ≥ 1 | – | – | – | ≥ 1 | ≥ 1 | – | < 10 | 0.1 to 1 | – | – | <1 | – | – |
| COC/C=C/C(=O)N1CCC[C@H]1c1nc(-c2ccc(C(=O)Nc3ccccn3)c(F)c2)c2c(N)nccn12 [Example 52] | ≥ 1 | 100 to 1000 | <1 | ≥ 1 | ≥ 1 | ≥ 1 | – | – | – | – | – | – | – | – |
| COC/C=C/C(=O)N1CCC[C@H]1c1nc(-c2ccc(C(=O)Nc3cc(C)ccn3)cc2)c2c(N)nccn12 [Example 57, (S,E)-4-(8-amino-3-(1-(4-methoxybut-2-enoyl)pyrrolidin-2-yl)imidazo[1,5-a]pyrazin-1-yl)-N-(4-methylpyridin-2-yl)benzamide] | ≥ 1 | 10 to 100 | – | ≥ 1 | ≥ 1 | ≥ 1 | <0.1 | – | – | – | – | – | – | – |
| CCc1cnc(NC(=O)c2ccc(-c3nc([C@@H]4CCCCN4C(=O)/C=C/COC)n4ccnc(N)c34)cc2)s1 [Example 25, (S,E)-4-(8-Amino-3-(1-(4-methoxybut-2-enoyl)piperidin-2-yl)imidazo[1,5-a]pyrazin-1-yl)-N-(5-ethylthiazol-2-yl)benzamide] | ≥ 1 | – | – | ≥ 1 | ≥ 1 | ≥ 1 | – | < 10 | – | – | – | – | – | – |
| C=CS(=O)(=O)N1CCCC[C@H]1c1nc(-c2ccc(C(=O)Nc3cc(CCC)ccn3)cc2)c2c(N)nccn12 [Example 49, (S)-4-(8-amino-3-(1-(vinylsulfonyl)piperidin-2-yl)imidazo[1,5-a]pyrazin-1-yl)-N-(4-propylpyridin-2-yl)benzamide] | ≥ 1 | – | – | ≥ 1 | ≥ 1 | ≥ 1 | – | < 10 | – | – | – | – | – | – |

More lines, now with the values ahead:

| EC50 (FynT enzyme) [µM] | EC50 (Btk enzyme (His-Btk)) [nM] | EC50 Btk activity values (Btk enzyme (His-Btk); [1]) [µM] | EC50 (Lck enzyme; [2]) [µM] | EC50 (Src enzyme; [3]) [µM] | EC50 (Lyn enzyme; [4]) [µM] | EC50 Btk activity values (Btk enzyme (His-Btk); [5]) [µM] | EC50 (Btk enzyme (His-Btk); [6]) [nM] | EC50 (Lck enzyme) [µM] | EC50 (Src enzyme) [µM] | EC50 (Lyn enzyme; EC50 Lyn activity values, 60 min pre-incubation, 2 μM ATP, bin bound in μM) [µM] | EC50 Lck activity values (Lck enzyme; [7]) [µM] | EC50 Lyn activity values (Lyn enzyme; 60 min pre-incubation, 2 μM ATP, bin bound in μM) [µM] | EC50 (Lyn enzyme; EC50 Lyn activity values, 60 min pre-incubation, 2 μM ATP, bin bound in nM) [µM] | Structure (SMILES) |
| --- | --- | --- | --- | --- | --- | --- | --- | --- | --- | --- | --- | --- | --- | --- |
| ≥ 1 | 10 to 100 | – | ≥ 1 | ≥ 1 | ≥ 1 | <0.1 | – | – | – | – | – | – | – | Nc1nccn2c([C@@H]3CCCN3C(=O)c3ccnc(Cl)n3)nc(-c3ccc(C(=O)Nc4ccccn4)cc3)c12 [Example 5, (S)-4-(8-amino-3-(1-(2-chloropyrimidine-4-carbonyl)pyrrolidin-2-yl)imidazo[1,5-a]pyrazin-1-yl)-N-(pyridin-2-yl)benzamide] |
| ≥ 1 | – | – | ≥ 1 | ≥ 1 | ≥ 1 | – | < 10 | – | – | – | – | – | – | CC(=O)SCC(=O)N1CCC[C@H]1c1nc(-c2ccc(C(=O)Nc3ccccn3)cc2)c2c(N)nccn12 [Example 31, (S)—S-2-(2-(8-Amino-1-(4-(pyridin-2-ylcarbamoyl)phenyl)imidazo[1,5-a]pyrazin-3-yl)pyrrolidin-1-yl)-2-oxoethyl ethanethioate] |
| ≥ 1 | 10 to 100 | – | ≥ 1 | ≥ 1 | ≥ 1 | <0.1 | – | – | – | – | – | – | – | CN(C)CC#CC(=O)N1CCC[C@H]1c1nc(-c2ccc(C(=O)Nc3ccccn3)cc2)c2c(N)nccn12 [Example 40, (S)-4-(8-Amino-3-(1-(4-(dimethylamino)but-2-ynoyl)pyrrolidin-2-yl)imidazo[1,5-a]pyrazin-1-yl)-N-(pyridin-2-yl)benzamide] |
| ≥ 1 | 10 to 100 | – | – | – | – | <0.1 | – | ≥ 1 | ≥ 1 | ≥ 1 | – | – | – | Nc1nccn2c([C@@H]3CCCN3C(=O)/C=C/CN3CCCC3)nc(-c3ccc(C(=O)Nc4ccccn4)cc3)c12 [Example 2, (S,E)-4-(8-amino-3-(1-(4-(pyrrolidin-1-yl)but-2-enoyl)pyrrolidin-2-yl)imidazo[1,5-a]pyrazin-1-yl)-N-(pyridin-2-yl)benzamide] |
| ≥ 1 | – | – | – | ≥ 1 | – | – | < 10 | 0.1 to 1 | – | – | <1 | <1 | 0.1 to 1 | C=CC(=O)N1CCC[C@H]1c1nc(-c2ccc(C(=O)Nc3cc(C)ccn3)cc2)c2c(N)nccn12 [Example 124, (S)-4-(3-(1-acryloylpyrrolidin-2-yl)-8-aminoimidazo[1,5-a]pyrazin-1-yl)-N-(4-methylpyridin-2-yl)benzamide] |
| ≥ 1 | 100 to 1000 | <1 | ≥ 1 | ≥ 1 | ≥ 1 | – | – | – | – | – | – | – | – | N#CCN1CCC[C@H]1c1nc(-c2ccc(C(=O)Nc3ccccn3)cc2)c2c(N)nccn12 [Example 94, (S)-4-(8-amino-3-(1-(cyanomethyl)pyrrolidin-2-yl)imidazo[1,5-a]pyrazin-1-yl)-N-(pyridin-2-yl)benzamide] |
| ≥ 1 | – | – | ≥ 1 | ≥ 1 | ≥ 1 | – | < 10 | – | – | – | – | – | – | C=CC(=O)N1CCC[C@H]1c1nc(-c2ccc(C(=O)Nc3cc(F)ccn3)cc2)c2c(N)nccn12 [Example 42, (S)-4-(3-(1-acryloylpyrrolidin-2-yl)-8-aminoimidazo[1,5-a]pyrazin-1-yl)-N-(4-fluoropyridin-2-yl)benzamide] |
| ≥ 1 | – | – | ≥ 1 | ≥ 1 | ≥ 1 | – | < 10 | – | – | – | – | – | – | C=CC(=O)N1CCC[C@H]1c1nc(-c2ccc(C(=O)Nc3ccccn3)cc2)c2c(N)nccn12 [Example 1, (S)-4-(3-(1-Acryloylpyrrolidin-2-yl)-8-aminoimidazo[1,5-a]pyrazin-1-yl)-N-(pyridin-2-yl)benzamide] |
